The values that follow come from paper PMC10709440, “High-throughput ligand profile characterization in novel cell lines expressing seven heterologous insect olfactory receptors for the detection of volatile plant biomarkers” (Scientific Reports, 2023).

Assay [1] relates to OR47a. Set-up: method as in earlier work. As to conditions: DoOR database value; ref DoOR; cited from earlier work.
The subject of assay [2] is OR49b. Further details: method as in earlier work. To be noted: DoOR database value; ref DoOR; cited from earlier work.
Assay [3] deals with OR10a. Further details: method as in earlier work. As to conditions: DoOR database value; ref DoOR; cited from earlier work.
Assay [4] concerns OR13a. Set-up: method as in earlier work. As to conditions: DoOR database value; ref DoOR; cited from earlier work.
The test system of assay [5] is OR85b. Set-up: method as in earlier work. As to conditions: DoOR database value; ref DoOR; cited from earlier work.
The test system of assay [6] is OR98a. Further details: method as in earlier work. As to conditions: DoOR database value; ref DoOR; cited from earlier work.
For assay [7], the target named is T1, Drosophila OR85b (Drosophila melanogaster, UniProt Q9VHQ7).
T1 construct: expressed in transfected cells
T1 sequence (Q9VHQ7 1-390): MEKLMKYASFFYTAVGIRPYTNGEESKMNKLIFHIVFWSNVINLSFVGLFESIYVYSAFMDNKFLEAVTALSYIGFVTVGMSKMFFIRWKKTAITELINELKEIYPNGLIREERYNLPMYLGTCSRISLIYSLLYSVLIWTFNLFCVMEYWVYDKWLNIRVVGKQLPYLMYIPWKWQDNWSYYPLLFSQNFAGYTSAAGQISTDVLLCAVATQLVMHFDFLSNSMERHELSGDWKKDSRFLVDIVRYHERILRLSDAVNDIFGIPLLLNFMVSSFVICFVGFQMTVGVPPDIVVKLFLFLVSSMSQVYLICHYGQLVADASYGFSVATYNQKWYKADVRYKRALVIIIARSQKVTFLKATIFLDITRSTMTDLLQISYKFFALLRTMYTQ
T1 sequence (Q9VNB5 1-486 partner): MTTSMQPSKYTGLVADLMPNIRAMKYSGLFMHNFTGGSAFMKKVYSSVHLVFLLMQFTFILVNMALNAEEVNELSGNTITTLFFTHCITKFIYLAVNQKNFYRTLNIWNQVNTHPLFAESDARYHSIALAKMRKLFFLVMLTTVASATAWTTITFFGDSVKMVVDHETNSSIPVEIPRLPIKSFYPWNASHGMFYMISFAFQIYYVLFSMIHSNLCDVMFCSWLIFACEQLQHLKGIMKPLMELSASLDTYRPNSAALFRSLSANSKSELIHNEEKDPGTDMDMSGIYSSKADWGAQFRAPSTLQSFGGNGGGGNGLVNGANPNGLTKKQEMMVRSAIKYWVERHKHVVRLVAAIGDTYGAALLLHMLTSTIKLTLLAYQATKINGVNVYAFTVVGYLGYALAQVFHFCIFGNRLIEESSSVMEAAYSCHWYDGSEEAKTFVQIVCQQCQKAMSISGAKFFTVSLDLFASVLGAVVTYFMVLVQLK
As to the kind of experiment: Calcium ion fluorescence (GCaMP6) assay, OR85b stable HEK293 cell line. The format is cell-based. As to conditions: for activation at 1 µM / activation at 10 µM / activation at 100 µM: HEK293, read-out: OR85b response (VUAA1-normalized response); for Average response: OR85b cell line, VUAA1-normalized response, mean of biological replicates. In a few lines:
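HEK293 lines stably expressing each Drosophila OR with GCaMP6, doxycycline-induced (1 μg/mL) 48 or 72 h. Fluorescence recorded 5 s baseline then 30 s after VOC injection at pH 7.3; ΔF=(FMAX−F0)/F0, normalized to 50 µM VUAA1 response per line, triplicate wells averaged; concentration series 0.01–100 μM.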

Assay [8] relates to OR71a. Set-up: method as in earlier work. To be noted: DoOR database value; ref DoOR; cited from earlier work.
Setting [9] is: ligand concentration 1 (unit not given), threshold 0.05, below shown as 0.
Setting [10] is: ligand concentration 10 (unit not given), threshold 0.05, below shown as 0.
[11] abbreviates: ligand concentration 100 (unit not given), threshold 0.05, below shown as 0.

Consider `O=Cc1ccccc1` [benzaldehyde], for which the “OR47a DoOR response” value in assay [1] is reported as 0.06. Also, in assay [2], the “OR49b DoOR response” value is listed as 0.09. Also, the “OR10a DoOR response” value in assay [3] is listed as 0.22. Moreover, the “OR13a DoOR response” value in assay [4] is recorded as 0.025. Further, the “OR85b DoOR response” value in assay [5] is given as 0.07. The “OR98a DoOR response” value in assay [6] is given as 0.13. Besides, in assay [7], the activation at 1 µM came out at 6%. The activation at 10 µM in assay [7] was determined as 0%. For the same compound, the activation at 100 µM in assay [7] was 0%. Also, the values for the Average response in assay [7] (cc. 1 µM), in assay [7] (cc. 10 µM) and in assay [7] (cc. 100 µM) were 0.06, 0.00 and 0.00, respectively. The entries for the “DF norm AVERAGE OR85b” value in assay [7] (setting [9]), in assay [7] (setting [10]) and in assay [7] (setting [11]) were 0.06124, 0 and 0, respectively. In assay [8], the “OR71a DoOR response” value is 0.025.
For the compound `C=CC(O)CCCCC` (stereo not shown) [1-octen-3-ol], in assay [1], the “OR47a DoOR response” value was 0.25. Besides, the “OR49b DoOR response” value in assay [2] is recorded as 0.016. In addition, the “OR10a DoOR response” value in assay [3] is 0.019. The “OR13a DoOR response” value in assay [4] is 0.78. Moreover, in assay [5], the “OR85b DoOR response” value is on record as 0.53. Moreover, the “OR98a DoOR response” value in assay [6] was 0.58. Also, in assay [7], the activation at 1 µM is 0%. Besides, the activation at 10 µM in assay [7] turned out to be 0%. Further, the activation at 100 µM in assay [7] worked out at 8%. For the same compound, the Average response in assay [7] (cc. 1 µM) stood at 0.00; in assay [7] (cc. 10 µM) it was 0.0043; in assay [7] (cc. 100 µM) it was 0.08. Besides, the “DF norm AVERAGE OR85b” value in assay [7] (concentration 1, normalized fluorescence change, values below 0.05 threshold given as 0) was 0; in assay [7] (concentration 10, normalized fluorescence change, values below 0.05 threshold given as 0), 0; in assay [7] (concentration 100, normalized fluorescence change, values below 0.05 threshold given as 0) it was 0.08325. Also, the “OR71a DoOR response” value in assay [8] is given as 0.09.
For the compound `C=CCc1ccc(O)c(OC)c1` [eugenol], in assay [1], the “OR47a DoOR response” value is on record as -0.013. Also, the “OR49b DoOR response” value in assay [2] is on record as 0.002. In assay [3], the “OR10a DoOR response” value was 0.15. Further, the “OR13a DoOR response” value in assay [4] was 0.024. Further, the “OR85b DoOR response” value in assay [5] is 0.053. The “OR98a DoOR response” value in assay [6] was 0.15. In addition, the activation at 1 µM in assay [7] stood at 0%. For the same compound, the activation at 10 µM in assay [7] turned out to be 0%. For the same compound, the activation at 100 µM in assay [7] came out at 9%. In addition, the Average response in assay [7] (cc. 1 µM) is recorded as 0.00; in assay [7] (cc. 10 µM), 0.0188; in assay [7] (cc. 100 µM), 0.09. Moreover, the “DF norm AVERAGE OR85b” value is on record as 0 in assay [7] (setting [9]), 0 in assay [7] (setting [10]) and 0.09022 in assay [7] (setting [11]). In addition, the “OR71a DoOR response” value in assay [8] was 0.73.
As for `CCCC(=O)OCC` [ethyl butyrate], the “OR47a DoOR response” value in assay [1] is on record as 0.26. Besides, the “OR49b DoOR response” value in assay [2] is given as -0.002. Besides, the “OR10a DoOR response” value in assay [3] was 0.025. Moreover, the “OR13a DoOR response” value in assay [4] is 0.11. The “OR85b DoOR response” value in assay [5] was 0.21. Besides, the “OR98a DoOR response” value in assay [6] is recorded as 0.25. In addition, in assay [7], the activation at 1 µM was 0%. Besides, the activation at 10 µM in assay [7] amounted to 0%. The activation at 100 µM in assay [7] stood at 0%. Besides, the Average response in assay [7] (cc. 1 µM) is given as 0.00; in assay [7] (cc. 10 µM), 0.0253; in assay [7] (cc. 100 µM), 0.0224. The “DF norm AVERAGE OR85b” value in assay [7] (setting [9]), in assay [7] (setting [10]) and in assay [7] (setting [11]) was 0 each time. Also, the “OR71a DoOR response” value in assay [8] was 0.046.
